The values that follow come from US6596738B1, “Heterocyclic compound, composition and method for inhibiting adenosine deaminase” (Fujisawa Pharmaceutical Co., Ltd., priority 1999, dated 2003).

pIC50, pKi: −log10 of the molar value.

For data set [1], the target named is T1, Human ADA (Homo sapiens, UniProt P00813).
T1 construct: made in house; host or cells: ADA-deficient bacterial strain
T1 sequence (P00813 1-363): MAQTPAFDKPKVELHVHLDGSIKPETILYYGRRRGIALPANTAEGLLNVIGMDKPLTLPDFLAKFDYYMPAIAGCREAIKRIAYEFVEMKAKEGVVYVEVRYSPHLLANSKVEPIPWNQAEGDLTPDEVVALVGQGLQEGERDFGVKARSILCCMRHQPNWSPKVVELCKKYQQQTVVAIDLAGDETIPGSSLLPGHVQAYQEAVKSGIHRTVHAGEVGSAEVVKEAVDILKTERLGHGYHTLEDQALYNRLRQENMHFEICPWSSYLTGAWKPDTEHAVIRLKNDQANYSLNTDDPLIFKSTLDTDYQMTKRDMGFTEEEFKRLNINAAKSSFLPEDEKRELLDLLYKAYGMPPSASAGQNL
The experiment in a line: Adenosine deaminase (ADA) enzyme assay [2], IC50 of Vmax inhibition. Type of data set: biochemical. As to the method:
Human ADA was expressed and purified from ADA-deficient bacterial strain. Reaction mixture of a total volume of 200 μl contained 0.16 μg/ml of ADA, 0.1 mM of adenosine and test compound in 10 mM phosphate buffer saline (pH 7.4). The reaction was started by addition of ADA to a mixture of adenosine and test compound.

In data set [2] the target is T1, Human ADA. The experiment in a line: Adenosine deaminase (ADA) enzyme assay [1], Ki by Dixon plot. The settings on record: 25 mU/ml ADA, varying concentrations of adenosine, 10 mM phosphate buffer saline pH 7.4, room temperature, A265 for 5 minutes. It counts as biochemical. As to the method: The reaction velocity (V) is measured by a change in absorbance at 265 nm (A265) resulting from the deamination of adenosine. Human ADA was expressed and purified from ADA-deficient bacterial strain. Reaction mixtures in a total volume of 200 μl contained 25 mU/ml of ADA and varying concentrations of adenosine and test compounds in 10 mM phosphate buffer saline (pH 7.4). The reaction was started by addition of ADA to a mixture of adenosine and test compound. The reaction was followed at room temperature by recording decrease in A265 for 5 minutes in SPECTRAmax 250 (Molecular Devices, USA) to automatically calculate Vmax. The inhibition constant (Ki) values of test compounds were determined by Dixon plot.

On Human ADA [1], `C[C@H](O)[C@@H](CCc1cccc2ccccc12)n1cncn1` [Compound A, 1-[(2S,3R)-2-Hydroxy-5-(1-naphthyl)-3-pentyl]-1,2,4-triazole] showed a negative-log IC50 (pIC50) of 7.57.

With `NC(=O)c1cn([C@@H](CO)CCn2ccc3ccccc32)cn1` [Example 2, 1-[(R)-1-hydroxy-4-(1-indolyl)-2-butyl]imidazole-4-carboxamide], the melting point was in the range of 127 to 130 °C.

For the molecule `NC(=O)c1cn([C@@H](CO)CCn2ccc3ccc(NC(=O)CCCc4ccccc4)cc32)cn1` [Example 6-(2), 1-[(R)-1-Hydroxy-4-(6-(4-phenylbutyrylamino)indol-1-yl)-2-butyl]imidazole-4-carboxamide], the negative-log Ki (pKi) at Human ADA [2] was 7.80.
